PubChem BioAssay AID248 (DTP/NCI, 2004)
Several values for one entry are separate records, joined by “and”; a condition that tells them apart may be missing. Equal values may be shown once. Toxic doses and inconclusive results are not listed. Rule as the data show it: active = T/C of 150% or more; inactive = T/C below 125%.

System: L1210 leukemia ip in BDF1 mice, survival T/C
Test: NCI In Vivo Anticancer Drug Screen. Data for tumor model L1210 Leukemia (intraperitoneal) in B6D2F1 (BDF1) mice
Conditions: endpoint: mean survival time, higher = longer survival
Procedure, shortened: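 Mice bearing the transplanted tumor received compound or vehicle. Survival of the treated group was divided by that of the vehicle-treated control group to give the ratio.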

[1] = dose: 12.5 mg/kg/injection, schedule: Q01DX009 (ip), vehicle: Klucel (hydroxypropylcellulose) (HPC)
[2] = dose: 25.0 mg/kg/injection, schedule: Q01DX009 (ip), vehicle: Klucel (hydroxypropylcellulose) (HPC)
[3] = dose: 50.0 mg/kg/injection, schedule: Q01DX009 (ip), vehicle: Klucel (hydroxypropylcellulose) (HPC)
[4] = dose: 100.0 mg/kg/injection, schedule: Q01DX009 (ip), vehicle: Klucel (hydroxypropylcellulose) (HPC)
[5] = dose: 100.0 mg/kg/injection, schedule: Q04DX003 (ip), vehicle: Klucel (hydroxypropylcellulose) (HPC)
[6] = dose: 100.0 mg/kg/injection, schedule: Q04DX003 (ip), vehicle: saline
[7] = dose: 200.0 mg/kg/injection, schedule: Q04DX003 (ip), vehicle: saline
[8] = dose: 50.0 mg/kg/injection, schedule: Q01DX001 (ip), vehicle: carboxymethylcellulose (CMC)
[9] = dose: 100.0 mg/kg/injection, schedule: Q01DX001 (ip), vehicle: carboxymethylcellulose (CMC)
[10] = dose: 200.0 mg/kg/injection, schedule: Q01DX001 (ip), vehicle: carboxymethylcellulose (CMC)
[11] = dose: 400.0 mg/kg/injection, schedule: Q01DX001 (ip), vehicle: carboxymethylcellulose (CMC)
[12] = dose: 100.0 mg/kg/injection, schedule: Q01DX009 (ip), vehicle: saline with Tween-80
[13] = dose: 100.0 mg/kg/injection, schedule: Q04DX003 (ip), vehicle: saline with Tween-80
[14] = dose: 200.0 mg/kg/injection, schedule: Q01DX009 (ip), vehicle: saline with Tween-80
[15] = dose: 400.0 mg/kg/injection, schedule: Q01DX009 (ip), vehicle: saline with Tween-80
[16] = dose: 100.0 mg/kg/injection, schedule: Q04DX002 (ip), vehicle: Klucel (hydroxypropylcellulose) (HPC)
[17] = dose: 200.0 mg/kg/injection, schedule: Q04DX002 (ip), vehicle: Klucel (hydroxypropylcellulose) (HPC)
[18] = dose: 400.0 mg/kg/injection, schedule: Q04DX002 (ip), vehicle: Klucel (hydroxypropylcellulose) (HPC)
[19] = dose: 200.0 mg/kg/injection, schedule: Q01DX009 (ip), vehicle: Klucel (hydroxypropylcellulose) (HPC)
[20] = dose: 400.0 mg/kg/injection, schedule: Q01DX009 (ip), vehicle: Klucel (hydroxypropylcellulose) (HPC)
[21] = dose: 100.0 mg/kg/injection, schedule: Q01DX001 (ip), vehicle: saline
[22] = dose: 200.0 mg/kg/injection, schedule: Q01DX001 (ip), vehicle: saline

Measured: T/C

O=C(CC(c1ccccc1)N1CCN(c2ccccc2)CC1)c1ccc(F)cc1 (stereo unspecified)
inactive: [1] 88 % of control | [2] 93 % of control | [3] 93 % of control | dose: 200.0 mg/kg/injection, schedule: Q01DX009 (ip), vehicle: gum acacia 87 % of control | dose: 400.0 mg/kg/injection, schedule: Q01DX009 (ip), vehicle: gum acacia 89 % of control

OC(CCN1CCCCC1)(c1ccccc1)C1CC2C=CC1C2 (stereo unspecified)
inactive: dose: 6.25 mg/kg/injection, schedule: Q01DX009 (ip), vehicle: Klucel (hydroxypropylcellulose) (HPC) 106 % of control | [1] 105 % of control | [2] 100 % of control | dose: 25.0 mg/kg/injection, schedule: Q04DX003 (ip), vehicle: Klucel (hydroxypropylcellulose) (HPC) 106 % of control | [3] 105 % of control | dose: 50.0 mg/kg/injection, schedule: Q04DX003 (ip), vehicle: Klucel (hydroxypropylcellulose) (HPC) 97 % of control | [4] 103 % of control | [5] 95 % of control

O=S(=O)(C/C(=N\O)c1ccccc1)C/C(=N/O)c1ccccc1
inactive: [6] 104 % of control | [7] 98 % of control | dose: 400.0 mg/kg/injection, schedule: Q04DX003 (ip), vehicle: saline 100 % of control

C(=Nc1ccccc1)c1ccccc1
inactive: [8] 98 % of control | [9] 96 % of control | dose: 100.0 mg/kg/injection, schedule: Q01DX009 (ip), vehicle: saline 98 % of control | [6] 104 % of control | [10] 91 % of control | dose: 200.0 mg/kg/injection, schedule: Q01DX009 (ip), vehicle: saline 100 % of control | [7] 105 % of control | [11] 91 % of control

O=C(/C=C/c1ccccc1)c1cccc(Br)c1
inactive: [12] 106 % of control | [13] 97 % of control | [14] 91 % of control | dose: 200.0 mg/kg/injection, schedule: Q04DX003 (ip), vehicle: saline with Tween-80 96 % of control | [15] 96 % of control | dose: 400.0 mg/kg/injection, schedule: Q04DX003 (ip), vehicle: saline with Tween-80 96 % of control

O=C(O)CCNc1ccccc1C(=O)O
inactive: [9] 100 % of control | [10] 96 % of control | [11] 100 % of control

C=C(Br)CNC(=O)NCC(=C)Br
inactive: [12] 105 % of control | [14] 100 % of control | [15] 105 % of control

S=c1[nH]c2ccc(Cl)cc2[nH]1
inactive: dose: 25.0 mg/kg/injection, schedule: Q04DX003 (ip), vehicle: saline with Tween-80 100 % of control | dose: 50.0 mg/kg/injection, schedule: Q04DX003 (ip), vehicle: saline with Tween-80 98 % of control | [13] 100 % of control

O=C(O)c1c(Cl)c(-c2c(Cl)c(C(=O)O)c(Cl)c([N+](=O)[O-])c2Cl)c(Cl)c([N+](=O)[O-])c1Cl
inactive: [12] 96 % of control | [14] 96 % of control | [15] 93 % of control

C/C([O-])=C(/c1nc(-c2ccc([N+](=O)[O-])o2)no1)[n+]1cc(C)ccc1C
inactive: [16] 95 % of control | [17] 91 % of control | [18] 87 % of control

CCOC(=O)c1ccc(NC(=O)Oc2ccc(SC)cc2)cc1
inactive: [4] 90 % of control | [19] 94 % of control | [20] 94 % of control

COc1ccc(COC(=O)Nc2ccccc2Cl)cc1
inactive: [4] 91 % of control | [16] 95 % of control | [19] 96 % of control | [20] 104 % of control | [18] 95 % of control

O=C(O)c1cc(S(=O)(=O)F)c(Cl)cc1Cl
inactive: dose: 25.0 mg/kg/injection, schedule: Q01DX009 (ip), vehicle: saline with Tween-80 102 % of control | dose: 50.0 mg/kg/injection, schedule: Q01DX009 (ip), vehicle: saline with Tween-80 103 % of control | [12] 100 % of control and 101 % of control

CC1=CC(C)=NC2NNC(=O)C12 (stereo unspecified)
inactive: dose: 100.0 mg/kg/injection, schedule: Q04DX002 (ip), vehicle: saline with Tween-80 100 % of control | dose: 200.0 mg/kg/injection, schedule: Q04DX002 (ip), vehicle: saline with Tween-80 103 % of control | dose: 400.0 mg/kg/injection, schedule: Q04DX002 (ip), vehicle: saline with Tween-80 96 % of control

NC(=O)c1cn[nH]c1N
inactive: dose: 100.0 mg/kg/injection, schedule: Q01DX001 (ip), vehicle: Klucel (hydroxypropylcellulose) (HPC) 96 % of control | [4] 95 % of control and 87 % of control and 93 % of control | [16] 100 % of control and 102 % of control | [5] 106 % of control and 93 % of control | dose: 200.0 mg/kg/injection, schedule: Q01DX001 (ip), vehicle: Klucel (hydroxypropylcellulose) (HPC) 104 % of control | [19] 93 % of control and 95 % of control | [17] 96 % of control and 120 % of control | dose: 200.0 mg/kg/injection, schedule: Q04DX003 (ip), vehicle: Klucel (hydroxypropylcellulose) (HPC) 100 % of control and 91 % of control | dose: 400.0 mg/kg/injection, schedule: Q01DX001 (ip), vehicle: Klucel (hydroxypropylcellulose) (HPC) 96 % of control | [20] 97 % of control and 123 % of control and 93 % of control | [18] 100 % of control and 102 % of control | dose: 400.0 mg/kg/injection, schedule: Q04DX003 (ip), vehicle: Klucel (hydroxypropylcellulose) (HPC) 87 % of control and 93 % of control

CCCC(C)C(O)C(C)C (stereo unspecified)
inactive: [8] 93 % of control | [9] 95 % of control | [10] 95 % of control | [11] 93 % of control

CC1CN=C(c2ccc(NC(=O)NCCCCCCCCCCCCNC(=O)Nc3ccc(C4=NCC(C)N4)cc3)cc2)N1 (stereo unspecified)
inactive: dose: 12.5 mg/kg/injection, schedule: Q01DX Z (ip), vehicle: carboxymethylcellulose (CMC) 95 % of control | dose: 125.0 mg/kg/injection, schedule: Q01DX Z (ip), vehicle: carboxymethylcellulose (CMC) 104 % of control

NC1CC2C=CCC(C1)C2 (stereo unspecified)
inactive: [21] 95 % of control | [22] 94 % of control

CCSC(=O)n1ncc2cc(Cl)ccc21
inactive: dose: 100.0 mg/kg/injection, schedule: Q01DX001 (ip), vehicle: other 105 % of control | dose: 200.0 mg/kg/injection, schedule: Q01DX001 (ip), vehicle: other 97 % of control | dose: 400.0 mg/kg/injection, schedule: Q01DX001 (ip), vehicle: other 108 % of control

C=C1C(=O)OC2C1C(OC(=O)/C(=C/C)COC(C)=O)CC1(CO1)C1C(OC(=O)/C(=C/C)CO)C3OC3(C)C21 (stereo unspecified)
inactive: dose: 3.12 mg/kg/injection, schedule: Q01DX009 (ip), vehicle: alcohol 110 % of control | dose: 6.25 mg/kg/injection, schedule: Q01DX009 (ip), vehicle: alcohol 104 % of control | dose: 12.5 mg/kg/injection, schedule: Q01DX009 (ip), vehicle: alcohol 96 % of control

Cc1[nH][nH]c(=O)c1N=Nc1ccccc1
inactive: [3] 94 % of control | [4] 98 % of control | [19] 98 % of control

CC(=O)NC(C(O)CC(=O)C(=O)O)C(O)C(O)C(O)CO (stereo unspecified) (tested in a mixture with another compound)
inactive: [21] 102 % of control | [22] 100 % of control | dose: 400.0 mg/kg/injection, schedule: Q01DX001 (ip), vehicle: saline 102 % of control
